Series [1] can be described thus: absorption spectrum (maximum absorption wavelength, molar extinction coefficient). The series is classed as physicochemical.
The nature of series [2]: singlet oxygen efficiency test, reference rose bengal. The series is classed as physicochemical.

For the compound `COCCOCCOCCOCCOCCOCCOCCC(=O)OCC1(Nc2c3c4c5c(c(OC)c(=O)c6c(O)cc(OC)c(c7c(OC)cc(NC8(COC(=O)CCOCCOCCOCCOCCOCCOCCOC)CC8)c(c2=O)c74)c65)C(C(C)=O)C(C)=C3)CC1` (stereo not drawn) [HB-35c-PEG6], in series [1], the maximum absorption wavelength turned out to be 630 nm and the molar extinction coefficient is 33,500 M^−1cm^−1. Also, the singlet oxygen yield in series [2] came to 38%.
For `COc1c2c3c4c(c(NC5(CO)CC5)c(=O)c5c(NC6(CO)CC6)cc(OC)c(c6c(OC)cc(O)c(c1=O)c63)c54)C=C(C)C2C(C)=O` (stereo not drawn) [HB-35c] the same measures were 619 nm, 32,500 M^−1cm^−1 and 34%.
The corresponding values for `COc1c2c3c4c(c(NC5(CO)CC5)c(=O)c5c(O)cc(OC)c(c6c(OC)cc(NC7(CO)CC7)c(c1=O)c63)c54)C=C(C)C2C(C)=O` (stereo not drawn) [HB-35d] are 621 nm, 31,500 M^−1cm^−1 and 30%.
For the compound `CCNNc1c(NNCC)c2c(=O)cc(OC)c3c4c(OC)cc(=O)c5c(O)c(OC)c6c(c(c1C=C(C)C6C(C)=O)c23)c54` (stereo not drawn) [HB-36a], in series [1], the maximum absorption wavelength is 621 nm and the molar extinction coefficient was 30,500 M^−1cm^−1. This compound showed a singlet oxygen yield in series [2] of 32%.
Turning to `CCNNc1c(O)c2c(=O)cc(OC)c3c4c(OC)cc(=O)c5c(NNCC)c(OC)c6c(c(c1C=C(C)C6C(C)=O)c23)c54` (stereo not drawn) [HB-36b], in series [1], the maximum absorption wavelength stood at 622 nm and the molar extinction coefficient is listed as 31,500 M^−1cm^−1. Also, in series [2], the singlet oxygen yield turned out to be 30%.
The corresponding values for `CCNNc1c2c3c4c(c(OC)c(=O)c5c(O)cc(OC)c(c6c(OC)cc(NNCC)c(c1=O)c63)c54)C(C(C)=O)C(C)=C2` (stereo not drawn) [HB-36c] are 621 nm, 33,500 M^−1cm^−1 and 35%.
For `CCNNc1c2c3c4c(c(OC)c(=O)c5c(NNCC)cc(OC)c(c6c(OC)cc(O)c(c1=O)c63)c54)C(C(C)=O)C(C)=C2` (stereo not drawn) [HB-36d] the same measures were 621 nm, 32,000 M^−1cm^−1 and 32%.
For `COc1c(O)c2c(=O)cc(OC)c3c4c(OC)cc(=O)c5c(NCc6cccc[n+]6C)c(NCc6cccc[n+]6C)c6c(c(c1C(C(C)=O)C(C)=C6)c23)c54` (stereo not drawn) [HB-38a-N^+] the same measures were 620 nm, 22,000 M^−1cm^−1 and 18%.
Turning to `COc1c(O)c2c(=O)cc(OC)c3c4c(OC)cc(=O)c5c(NCc6cccc[n+]6CCCC(=O)O)c(NCc6cccc[n+]6CCCC(=O)O)c6c(c(c1C(C(C)=O)C(C)=C6)c23)c54` (stereo not drawn) [HB-38a-N—COOH], in series [1], the maximum absorption wavelength was 620 nm and the molar extinction coefficient is given as 22,000 M^−1cm^−1. The singlet oxygen yield in series [2] came out at 20%.
For `COc1c(O)c2c(=O)cc(OC)c3c4c(OC)cc(=O)c5c(NCc6ccccn6)c(NCc6ccccn6)c6c(c(c1C(C(C)=O)C(C)=C6)c23)c54` (stereo not drawn) [HB-38a] the same measures were 624 nm, 19,000 M^−1cm^−1 and 16%.
For `COc1c(NCc2cccc[n+]2C)c2c(=O)cc(OC)c3c4c(OC)cc(=O)c5c(O)c(NCc6cccc[n+]6C)c6c(c(c1C(C(C)=O)C(C)=C6)c23)c54` (stereo not drawn) [HB-38b-N^+] the same measures were 620 nm, 21,000 M^−1cm^−1 and 20%.
`COc1c(NCc2cccc[n+]2CCCC(=O)O)c2c(=O)cc(OC)c3c4c(OC)cc(=O)c5c(O)c(NCc6cccc[n+]6CCCC(=O)O)c6c(c(c1C(C(C)=O)C(C)=C6)c23)c54` (stereo not drawn) [HB-38b-N—COOH]: in series [1], the maximum absorption wavelength is reported as 620 nm and the molar extinction coefficient was 21,500 M^−1cm^−1. Further, the singlet oxygen yield in series [2] came out at 18%.
For `COc1c(NCc2ccccn2)c2c(=O)cc(OC)c3c4c(OC)cc(=O)c5c(O)c(NCc6ccccn6)c6c(c(c1C(C(C)=O)C(C)=C6)c23)c54` (stereo not drawn) [HB-38b] the same measures were 621 nm, 18,500 M^−1cm^−1 and 16%.
On to `COc1c2c3c4c(c(NCc5cccc[n+]5C)c(=O)c5c(NCc6cccc[n+]6C)cc(OC)c(c6c(OC)cc(O)c(c1=O)c63)c54)C=C(C)C2C(C)=O` (stereo not drawn) [HB-38c-N^+], for which, in series [1], the maximum absorption wavelength stood at 622 nm and the molar extinction coefficient is 22,500 M^−1cm^−1. The singlet oxygen yield in series [2] came out at 21%.
For `COc1c2c3c4c(c(NCc5cccc[n+]5CCCC(=O)O)c(=O)c5c(NCc6cccc[n+]6CCCC(=O)O)cc(OC)c(c6c(OC)cc(O)c(c1=O)c63)c54)C=C(C)C2C(C)=O` (stereo not drawn) [HB-38c-N—COOH] the same measures were 622 nm, 21,500 M^−1cm^−1 and 21%.
For `COc1c2c3c4c(c(NCc5ccccn5)c(=O)c5c(NCc6ccccn6)cc(OC)c(c6c(OC)cc(O)c(c1=O)c63)c54)C=C(C)C2C(C)=O` (stereo not drawn) [HB-38c] the same measures were 628 nm, 20,000 M^−1cm^−1 and 18%.
For `COc1c2c3c4c(c(NCc5cccc[n+]5C)c(=O)c5c(O)cc(OC)c(c6c(OC)cc(NCc7cccc[n+]7C)c(c1=O)c63)c54)C=C(C)C2C(C)=O` (stereo not drawn) [HB-38d-N^+] the same measures were 626 nm, 21,500 M^−1cm^−1 and 20%.
Regarding `COc1c2c3c4c(c(NCc5cccc[n+]5CCCC(=O)O)c(=O)c5c(O)cc(OC)c(c6c(OC)cc(NCc7cccc[n+]7CCCC(=O)O)c(c1=O)c63)c54)C=C(C)C2C(C)=O` (stereo not drawn) [HB-38d-N—COOH], in series [1], the maximum absorption wavelength turned out to be 626 nm and the molar extinction coefficient is recorded as 21,000 M^−1cm^−1. Also, the singlet oxygen yield in series [2] worked out at 20%.
For `COc1c2c3c4c(c(NCc5ccccn5)c(=O)c5c(O)cc(OC)c(c6c(OC)cc(NCc7ccccn7)c(c1=O)c63)c54)C=C(C)C2C(C)=O` (stereo not drawn) [HB-38d] the same measures were 624 nm, 18,500 M^−1cm^−1 and 17%.
The corresponding values for `COCCOCCN1C(=O)CN(C(=O)OCCNc2c(NCCOC(=O)N3CC(=O)N(CCOCCOC)C(=O)C3)c3c(=O)cc(OC)c4c5c(OC)cc(=O)c6c(O)c(OC)c7c(c(c2C=C(C)C7C(C)=O)c34)c65)CC1=O` (stereo not drawn) [HB-40a-PEG1] are 624 nm, 31,500 M^−1cm^−1 and 32%.
`COc1c(O)c2c(=O)cc(OC)c3c4c(OC)cc(=O)c5c(NCCOC(=O)N6CC(=O)NC(=O)C6)c(NCCOC(=O)N6CC(=O)NC(=O)C6)c6c(c(c1C(C(C)=O)C(C)=C6)c23)c54` (stereo not drawn) [HB-40a]: in series [1], the maximum absorption wavelength came out at 620 nm and the molar extinction coefficient is given as 31,000 M^−1cm^−1. This compound gave a singlet oxygen yield in series [2] of 30%.

The values above are taken from patent publication US11439707B2, “Hypocrellin derivative substituted both in a peri-position and in 2-position by amino, preparation method, and application thereof” (priority 2017, dated 2022).
